According to ChEMBL document CHEMBL1138566, “Synthesis of novel benzo[h]quinolines: wound healing, antibacterial, DNA binding and in vitro antioxidant activity” (Eur J Med Chem, 2009):
≈ marks a conversion by molar mass, not a printed value. Calls of active or inactive are those of the source. The rule behind the calls is not given here.

Legend:
Calf thymus DNA [1] = assay: Binding affinity to calf thymus DNA assessed as melting temperature; assay type: nucleic-acid assay; conditions: Bos taurus
Rattus norvegicus [2] = assay: Wound healing activity in Wistar albino rat dorsal back excision wound model assessed as epithelization period applied topically as cream base ointment over 100/500mm'2 scar; assay type: functional
Streptococcus pyogenes [3] = assay: Antibacterial activity against Streptococcus pyogenes NCIM 2608 after 48 hrs by microdilution method; assay type: functional; conditions: NCIM 2608, 48 h
Rattus norvegicus [4] = assay: Wound healing activity in Wistar albino rat dorsal back excision wound model applied topically as 1 %W/W gel base ointment measured after 18 days; assay type: functional
[5] = tested on: Radical scavenging activity; assay: Antioxidant activity assessed as DPPH radical scavenging activity; assay type: functional
Streptococcus pyogenes [6] = assay: Antibacterial activity against Streptococcus pyogenes NCIM 2608 at 10 mg/ml after 48 hrs by agar well diffusion method; assay type: functional; conditions: NCIM 2608, 48 h, read-out: DIZ
Nucleic Acid [7] = assay: Intrinsic binding affinity to DNA assessed as hypochromism by absorption spectral analysis; assay type: nucleic-acid assay
Calf thymus DNA [8] = assay: Binding affinity to calf thymus DNA assessed as increase in viscosity at 100 uM; assay type: nucleic-acid assay; conditions: Bos taurus
Rattus norvegicus [9] = assay: Wound healing activity in Wistar albino rat dorsal back excision wound model assessed as wound closure applied topically as cream base ointment over 100/500 mm'2 scar measured after 4 days; assay type: functional
Rattus norvegicus [10] = assay: Wound healing activity in Wistar albino rat dorsal back excision wound model assessed as wound closure applied topically as cream base ointment over 100/500 mm'2 scar measured after 16 days; assay type: functional
Klebsiella pneumoniae [11] = assay: Antibacterial activity against Klebsiella pneumoniae MTCC 618 after 48 hrs by microdilution method; assay type: functional; conditions: MTCC 618, 48 h
Nucleic Acid [12] = assay: Binding affinity to DNA assessed as reduction of Uv-vis spectra absorption at 293 nm wavelength at 0.5 uM by DNA intercalation assay; assay type: nucleic-acid assay; design: scale not given: the % may be the effect or the level left
Pseudomonas aeruginosa [13] = assay: Antibacterial activity against Pseudomonas aeruginosa ATCC 20852 at 10 mg/ml after 48 hrs by agar well diffusion method; assay type: functional; conditions: ATCC 20852, 48 h, read-out: DIZ
Bacillus subtilis [14] = assay: Antibacterial activity against Bacillus subtilis NCIM 2010 by microdilution method; assay type: functional
Rattus norvegicus [15] = assay: Wound healing activity in Wistar albino rat dorsal back excision wound model assessed as wound closure applied topically as cream base ointment over 100/500 mm'2 scar measured after 8 days; assay type: functional
Staphylococcus aureus [16] = assay: Antibacterial activity against Staphylococcus aureus ATCC 29737 after 48 hrs by microdilution method; assay type: functional; conditions: ATCC 29737, 48 h
[17] = Antioxidant activity assessed as hydrogen peroxide scavenging activity at 60 ug/ml by spectrophotometry; assay type: functional
[18] = Antioxidant activity assessed as inhibition of phenazine methosulphate-NADH coupling reaction-induced superoxide anion production at 60 ug/ml; assay type: functional; design: scale not given: the % may be the effect or the level left
Klebsiella pneumoniae [19] = assay: Antibacterial activity against Klebsiella pneumoniae MTCC 618 at 10 mg/ml after 48 hrs by agar well diffusion method; assay type: functional; conditions: MTCC 618, 48 h, read-out: DIZ
Pseudomonas aeruginosa [20] = assay: Antibacterial activity against Pseudomonas aeruginosa ATCC 20852 after 48 hrs by microdilution method; assay type: functional; conditions: ATCC 20852, 48 h
Escherichia coli [21] = assay: Antibacterial activity against Escherichia coli at 10 mg/ml after 48 hrs by agar well diffusion method; assay type: functional; conditions: read-out: DIZ
Staphylococcus aureus [22] = assay: Antibacterial activity against Staphylococcus aureus ATCC 29737 at 10 mg/ml after 48 hrs by agar well diffusion method; assay type: functional; conditions: ATCC 29737, 48 h, read-out: DIZ
Bacillus subtilis [23] = assay: Antibacterial activity against Bacillus subtilis NCIM 2010 at 10 mg/ml after 48 hrs by agar well diffusion method; assay type: functional; conditions: NCIM 2010, 48 h, read-out: DIZ
[24] = Antioxidant activity assessed as increase in reducing power at 20 to 60 ug/mL; assay type: functional
Rattus norvegicus [25] = assay: Wound healing activity in Wistar albino rat dorsal back excision wound model assessed as wound closure applied topically as cream base ointment over 100/500 mm'2 scar measured after 12 days; assay type: functional
Escherichia coli [26] = assay: Antibacterial activity against Escherichia coli after 48 hrs by microdilution method; assay type: functional
Rattus norvegicus [27] = assay: Wound healing activity in Wistar albino rat dorsal back excision wound model applied topically as cream base ointment over 100/500 mm'2 scar measured after 18 days; assay type: functional
Rattus norvegicus [28] = assay: Wound healing activity in Wistar albino rat dorsal back incision wound model assessed as tensile strength applied topically as cream base ointment over 100/500 mm'2 scar by tensiometry; assay type: functional
[29] = Antioxidant activity assessed as hydrogen peroxide scavenging activity by spectrophotometry; assay type: functional
Nucleic Acid [30] = assay: Intrinsic binding affinity to DNA by absorption spectral analysis; assay type: nucleic-acid assay
Bacillus subtilis [31] = assay: microbe, parasite or virus in culture; conditions: NCIM 2010, 48 h, read-out: DIZ
Description: Antibacterial activity against Bacillus subtilis NCIM 2010 at 10 ug/ml after 48 hrs by agar well diffusion method

Escherichia coli [32] = assay: Antibacterial activity against Escherichia coli at 10 ug/ml after 48 hrs by agar well diffusion method; conditions: read-out: DIZ
Pseudomonas aeruginosa [33] = assay: microbe, parasite or virus in culture; conditions: ATCC 20852, 48 h, read-out: DIZ
Description: Antibacterial activity against Pseudomonas aeruginosa ATCC 20852 at 10 ug/ml after 48 hrs by agar well diffusion method

Streptococcus pyogenes [34] = assay: microbe, parasite or virus in culture; conditions: NCIM 2608, 48 h, read-out: DIZ
Description: Antibacterial activity against Streptococcus pyogenes NCIM 2608 at 10 ug/ml after 48 hrs by agar well diffusion method

Klebsiella pneumoniae [35] = assay: microbe, parasite or virus in culture; conditions: MTCC 618, 48 h, read-out: DIZ
Description: Antibacterial activity against Klebsiella pneumoniae MTCC 618 at 10 ug/ml after 48 hrs by agar well diffusion method

Staphylococcus aureus [36] = assay: microbe, parasite or virus in culture; conditions: ATCC 29737, 48 h, read-out: DIZ
Description: Antibacterial activity against Staphylococcus aureus ATCC 29737 at 10 ug/ml after 48 hrs by agar well diffusion method

Rattus norvegicus [37] = assay: Wound healing activity in Wistar albino rat dorsal back excision wound model assessed as wound closure applied topically as 1 %W/W gel base ointment measured after 8 days; assay type: functional
Rattus norvegicus [38] = assay: Wound healing activity in Wistar albino rat dorsal back excision wound model assessed as wound closure applied topically as 1 %W/W gel base ointment measured after 12 days; assay type: functional, organism-based
Rattus norvegicus [39] = assay: Wound healing activity in Wistar albino rat dorsal back excision wound model assessed as wound closure applied topically as 1 %W/W gel base ointment measured after 16 days; assay type: functional
Rattus norvegicus [40] = assay: Wound healing activity in Wistar albino rat dorsal back excision wound model assessed as wound closure applied topically as 1 %W/W gel base ointment measured after 4 days; assay type: functional
Nucleic Acid [41] = assay: Binding affinity to DNA assessed as reduction of Uv-vis spectra absorption at 312 nm wavelength at 0.5 uM by DNA intercalation assay; assay type: nucleic-acid assay; design: scale not given: the % may be the effect or the level left

Compound | Tm (Calf thymus DNA [1]) | Activity (Rattus norvegicus [2]) | MIC (Streptococcus pyogenes [3]) | Activity [5] | zone of inhibition at 10000 µg/mL (Streptococcus pyogenes [6]) | Activity (Nucleic Acid [7]) | Activity (Calf thymus DNA [8]) | Activity (Rattus norvegicus [9]) | Activity (Rattus norvegicus [10]) | MIC (Klebsiella pneumoniae [11]) | zone of inhibition at 10000 µg/mL (Pseudomonas aeruginosa [13]) | MIC (Bacillus subtilis [14]) | Activity (Rattus norvegicus [15]) | MIC (Staphylococcus aureus [16]) | Activity [17] | Activity [18] | zone of inhibition at 10000 µg/mL (Klebsiella pneumoniae [19]) | MIC (Pseudomonas aeruginosa [20]) | MIC (Escherichia coli [26]) | Activity (Rattus norvegicus [28]) | also measured
O=Cc1cc2ccc3ccccc3c2nc1S | 60 °C | 18 days | 12.5 µg/mL (≈ 52.2 µM) | 55% | 17.4 mm | 20.5% | Active | 45.35% | 96.24% | 12.5 µg/mL (≈ 52.2 µM) | 11.6 mm | 16.2 µg/mL (≈ 67.9 µM) | 75.63% | 11 µg/mL (≈ 46 µM) | 68% | 65% | 13.6 mm | 16 µg/mL (≈ 66.9 µM) | 32 µg/mL (≈ 134 µM) | 544.83 g | Activity (Rattus norvegicus [4]): 95.71%; Activity (Nucleic Acid [12]): 20.3%; zone of inhibition at 10000 µg/mL (Escherichia coli [21]): 12.3 mm; zone of inhibition at 10000 µg/mL (Staphylococcus aureus [22]): 19.4 mm; zone of inhibition at 10000 µg/mL (Bacillus subtilis [23]): 15.2 mm; Activity [24]: Active; Activity (Rattus norvegicus [25]): 85.94%; Activity (Rattus norvegicus [27]): 100%; Activity [29]: Dose-dependent effect; Kb (Nucleic Acid [30]): 2.7 ×10⁵ /M
O=C(O)c1cn(C2CC2)c2cc(N3CCNCC3)c(F)cc2c1=O [CIPROFLOXACIN] |  |  | 6.25 µg/mL (≈ 18.9 µM) |  |  |  |  |  |  | 12.5 µg/mL (≈ 37.7 µM) |  | 12.5 µg/mL (≈ 37.7 µM) |  | 6.75 µg/mL (≈ 20.4 µM) |  |  |  |  | 6.5 µg/mL (≈ 19.6 µM) |  | zone of inhibition at 10 µg/mL (Bacillus subtilis [31]): 21.3 mm; zone of inhibition at 10 µg/mL (Escherichia coli [32]): 19.2 mm; zone of inhibition at 10 µg/mL (Pseudomonas aeruginosa [33]): 23.3 mm; zone of inhibition at 10 µg/mL (Streptococcus pyogenes [34]): 20.8 mm; zone of inhibition at 10 µg/mL (Klebsiella pneumoniae [35]): 20.1 mm; zone of inhibition at 10 µg/mL (Staphylococcus aureus [36]): 21.4 mm
Cc1cc(C(C)(C)C)c(O)c(C(C)(C)C)c1 |  |  |  | 48% |  |  |  |  |  |  |  |  |  |  | Active | 51% |  |  |  |  | 
NC(=O)N/N=C/c1ccc([N+](=O)[O-])o1 [NITROFURAZONE] |  | 14 days |  |  |  |  |  |  |  |  |  |  |  |  |  |  |  |  |  | 599 g | Activity (Rattus norvegicus [37]): 87.21%; Activity (Rattus norvegicus [38]): 97.68%; Activity (Rattus norvegicus [39]): 100%; Activity (Rattus norvegicus [40]): 55.68%
COc1ccc(O)c(C(C)(C)C)c1.COc1ccc(O)cc1C(C)(C)C |  |  |  | 64% |  |  |  |  |  |  |  |  |  |  | Active | 81% |  |  |  |  | 
O=Cc1cc2ccc3ccccc3c2nc1[SeH] | 58 °C | 16 days | 12.5 µg/mL (≈ 43.7 µM) | 61% | 19.5 mm | 25.1% | Active | 53.65% | 100% | 25 µg/mL (≈ 87.4 µM) | 12.2 mm | 16.2 µg/mL (≈ 56.8 µM) | 85.26% | 8 µg/mL (≈ 28 µM) | 74% | 76% | 14.5 mm | 16 µg/mL (≈ 55.9 µM) | 25 µg/mL (≈ 87.4 µM) | 582.33 g | Activity (Nucleic Acid [41]): 18.2%; zone of inhibition at 10000 µg/mL (Escherichia coli [21]): 17.2 mm; zone of inhibition at 10000 µg/mL (Staphylococcus aureus [22]): 22.8 mm; zone of inhibition at 10000 µg/mL (Bacillus subtilis [23]): 20.6 mm; Activity [24]: Active; Activity (Rattus norvegicus [25]): 95.7%; Activity [29]: Dose-dependent effect; Kb (Nucleic Acid [30]): 3.8 ×10⁶ /M
